{"source": "patent US5023244A", "about": "“Anti-dementia agents” (Hoechst Japan Limited, priority 1986, dated 1991)", "key": {"[1]": {"experiment": "Passive avoidance task, memory retention test after cycloheximide-induced amnesia (retrieval process)", "type": "in vivo, ICR male mice", "settings": "cycloheximide 120 mg/kg i.p., test 24 h after training", "excerpt": "The passive avoidance task and the induction of amnesia by cycloheximide are experimental methods usually employed (Naoki Yamazaki et al.: Jap. J. Psychopharmacol., 3, 127 (1983)). The detailed method is described below. The apparatus used for the experiment was a plastic box 24 cm in height, 20 cm in width and 23 cm in length with a floor of iron grids at the corner of which was placed a platform 8 cm in length, 8 cm in width and 1.5 cm in height. When a mouse placed in the box was subjected to electric stimulus with a current of 0.3 mA for a period of approximately 3 seconds, the mouse escaped onto the platform. After subsequent non-stimulus period of 8 seconds, the mouse was subjected to the electric stimulus for an additional period of approximately 5 seconds. By this method, the mouse acquired memory of aversion that the electric stimulus would be delivered whenever the animal got off the platform, thus the passive avoidance task was established. The learning was judged to be established if the mouse placed on the platform under non-stimulus condition immediately after the training remained on it for 30 seconds or longer.\nThe test to observe whether or not a mouse retained memory of aversion was performed 24 hours after the training and percent memory retention was calculated according to the following equation: [formula]\nIn order to induce deficits of memory, the animal was intraperitoneally administered 15 min prior to the training with a physiological saline solution of cycloheximide at a dose of 120 mg/kg., and then subjected to the electric stimulus for training.\nA memory retention test was performed 24 hours after training. An intraperitoneal administration was done 75 min. prior to the test respectively for L-N^6 -phenylisopropyladenosine (Compound A) and N^6 -cyclohexyladenosine (Compound C), 60 min. prior to the test respectively for 2-chloroadenosine(Compound B) and adenosine-5'-(N-cyclopropyl)carboxamide (Compound E) and 45 min. prior to the test for adenosine-5'-(N-ethyl)carboxamide (Compound D)."}, "[2]": {"experiment": "Acute toxicity (LD50) in mice by intraperitoneal administration", "settings": "mouse, in vivo, ip"}, "[3]": {"settings": "100 μg/kg i.p., 75 min prior to test"}}, "data": [{"compound": "CCNC(=O)[C@H]1O[C@@H](n2cnc3c(N)ncnc32)[C@H](O)[C@@H]1O", "note": "[Compound D, adenosine-5'-(N-ethyl)carboxamide]", "values": [{"measurement": "Percent memory retention", "setting": "[1]; 3 μg/kg i.p., 45 min prior to test", "result": 39.3, "unit": "%"}, {"measurement": "Percent memory retention", "setting": "[1]; 7 μg/kg i.p., 45 min prior to test", "result": 42.3, "unit": "%"}, {"measurement": "Percent memory retention", "setting": "[1]; 10 μg/kg i.p., 45 min prior to test", "result": 51.4, "unit": "%"}]}, {"compound": "C[C@H](Cc1ccccc1)Nc1ncnc2c1ncn2[C@@H]1O[C@H](CO)[C@@H](O)[C@H]1O", "note": "[Compound A, L-N^6 -phenylisopropyladenosine]", "values": [{"measurement": "LD50", "setting": "[2]", "result": 31, "unit": "mg/kg"}, {"measurement": "Percent memory retention", "setting": "[1]; 50 μg/kg i.p., 75 min prior to test", "result": 36.8, "unit": "%"}, {"measurement": "Percent memory retention", "setting": "[1]; [3]", "result": 55.0, "unit": "%"}]}, {"compound": "Nc1nc(Cl)nc2c1ncn2[C@@H]1O[C@H](CO)[C@@H](O)[C@H]1O", "note": "[Compound B, 2-chloroadenosine]", "values": [{"measurement": "LD50", "setting": "[2]", "result": 45, "unit": "mg/kg"}, {"measurement": "Percent memory retention", "setting": "[1]; 500 μg/kg i.p., 60 min prior to test", "result": 35.0, "unit": "%"}, {"measurement": "Percent memory retention", "setting": "[1]; 1000 μg/kg i.p., 60 min prior to test", "result": 52.4, "unit": "%"}]}, {"compound": "OC[C@H]1O[C@@H](n2cnc3c(NC4CCCCC4)ncnc32)[C@H](O)[C@@H]1O", "note": "[Compound C, N^6 -cyclohexyladenosine]", "values": [{"measurement": "Percent memory retention", "setting": "[1]; 10 μg/kg i.p., 75 min prior to test", "result": 14.8, "unit": "%"}, {"measurement": "Percent memory retention", "setting": "[1]; [3]", "result": 20.8, "unit": "%"}, {"measurement": "Percent memory retention", "setting": "[1]; 300 μg/kg i.p., 75 min prior to test", "result": 66.7, "unit": "%"}]}, {"compound": "Nc1ncnc2c1ncn2[C@@H]1O[C@H](C(=O)NC2CC2)[C@@H](O)[C@H]1O", "note": "[Compound E, adenosine-5'-(N-cyclopropyl)carboxamide]", "values": [{"measurement": "Percent memory retention", "setting": "[1]; 1 μg/kg i.p., 60 min prior to test", "result": 25.0, "unit": "%"}, {"measurement": "Percent memory retention", "setting": "[1]; 3 μg/kg i.p., 60 min prior to test", "result": 40.0, "unit": "%"}, {"measurement": "Percent memory retention", "setting": "[1]; 10 μg/kg i.p., 60 min prior to test", "result": 62.1, "unit": "%"}, {"measurement": "Percent memory retention", "setting": "[1]; 30 μg/kg i.p., 60 min prior to test", "result": 66.7, "unit": "%"}]}]}
